Consider four compounds from patent publication US9752115B2, “Culture conditions for expansion of nephron progenitor cells” (Maine Medical Center Research Institute, priority 2014, dated 2017).

Experiment [1] relates to hESC-derived nephron progenitors. As to the kind of experiment: Subtraction of individual components from NPEM, hESC-derived progenitors. Format: cell-based, human. The conditions noted are these: passage 3 progenitors, 3 days monolayer. As to the method:
FIGS. 19A and 19B show nephron progenitor marker expression in human ES cell derived cultures grown in the absence of individual factors. In FIG. 19A, passage 3 progenitors were grown in NPEM in the absence of individual factors for 3 days in monolayer culture and immunostained for CITED1, SIX2, PAX2 and WT1. Antibody staining is shown in red and nuclear counterstaining with DAPI is shown in blue. In FIG. 19B, passage 3 progenitors were grown in NPEM in the absence of the indicated factors for 3 days in monolayer culture and immunostained for PAX2.
To understand if cellular growth in NPEM could be directly extrapolated to human cells, the above analysis was repeated with nephron progenitor cells derived from hESCs using the Takasato protocol (Takasato et al., 2014). CITED1+/SIX2+/PAX2+/WT1+ cells generated using this procedure lost expression of nephron progenitor markers following a single passage (FIG. 12A and FIG. 18A). […] When LDN was eliminated from the medium during the passage 2 culture, cells lost expression of PAX2 (FIG. 12C).

For experiment [2], the system named is E17.5 CITED1+ progenitors. Nature of the experiment: Subtraction of individual factors from NPEM, mouse progenitors. Format: cell-based. The conditions noted are these: for competence for tubulogenesis after subtraction of the factor: 7 days in aggregate culture after monolayer; for progenitor growth and state in the absence of the factor: factor subtracted from NPEM, 3 days monolayer. The protocol:
Flow cytometry. CITED1+ progenitors were purified from GFP+ kidneys isolated from Cited1creERT2-EGFP×ICR mice and cultured as described in the text. GFP fluorescence intensity and cell counts were collected on a FACSCalibur (BD) and data were analyzed using FlowJo software.
Using flow cytometry on E17.5 CITED1+ progenitors derived from Cited1creERT2-EGFP mice, the requirement for each of the culture additives to maintain cells in the undifferentiated state was evaluated by subtracting them from the medium (FIGS. 10A and 10B).
In the absence of LDN, nuclear localization of pSMAD1/5 increased dramatically, as did transcription of the SMAD response gene Cv2 (FIGS. 10C and 10D). […] In addition to losing CITED1 expression, progenitors cultured in the absence of LDN lost expression of characteristic marker genes including […], PAX2, WT1 and […], which may have helped to explain their lack of competence (FIG. 10F and FIG. 14). CITED1+ progenitors isolated from E13.5 kidneys also required LDN to expand while maintaining their competence to differentiate (FIG. 15).

Experiment [3] relates to CITED1+ progenitors. As to the kind of experiment: Aggregate culture tubulogenesis of purified CITED1+ progenitors. Format: cell-based, mouse. As to the method:
Cell culture. CITED1+ progenitors were purified from NZCs derived from E17.5 kidneys as previously described (Brown et al., 2011b; Brown et al., 2013). CITED1+ progenitors were cultured in monolayer on hESC qualified MatrigelTM coated plates (Corning). For human or mouse passage, cells were dissociated by incubation with TrypLE (Life Technologies) for 2 minutes at 37 C, washed and spun 2× at 300 g in autoMACs running buffer (Miltenyi) prior to resuspension in NPEM as described in Table 1. NPEM is changed every 2 days. Cells were differentiated in aggregate culture with CHIR (3 μM) in medium as previously described (Brown et al., 2013). To understand if these observations could be extrapolated to CITED1+ cells in culture, a series of experiments was performed upon nephron progenitor cells isolated from embryonic mouse kidneys. Using a previously developed isolation protocol, CITED1+ progenitors were harvested from embryonic mouse kidneys between the ages of E16.5 to P1 at near 100% purity, allowing interrogation of the CITED1+ population at multiple time points (FIGS. 7A and 7B) (Brown et al., 2013). However, CITED1 progenitor purity dropped to 75% by P2, likely due to the loss of CITED1+ progenitors that occurred during cessation (FIG. 7B and FIG. 6B).

Experiment [4] has as its system CITED1+ progenitors. The conditions noted are these: serum free medium; BIO 2 μM, CHIR99021 3 μM; cited from earlier work.
For experiment [5], the system named is SMAD1/5 phosphorylation. Nature of the experiment: pSMAD1/5 immunoblot of nephrogenic zone cells from LDN-treated newborn pups. The format is in vivo, mouse. The conditions noted are these: immunoblot of isolated NZCs; 3 mg/kg intraperitoneal twice daily P0 until P2. From the text:
(§1) Fluorescent imaging of GFP expression in cap mesenchymes “C” shown. […] Cap mesenchymes are outlined with dotted red lines. […] Percent remaining after LDN treatment quantified in graph. NZCs were isolated from 4 kidney pairs per treatment group and pooled. […] Representative image from 4 kidney pairs per group shown. […] Data represent the mean±SD of qPCR technical replicates from 5 (DMSO) and 6 (LDN) pooled kidney pairs.
(§2) Mouse strains and treatments. Animal care was in accordance with the National Research Council Guide for the Care and Use of Laboratory Animals and protocols were approved by the Institutional Animal Care and Use Committee of Maine Medical Center. CITED1 progenitors were derived from kidneys of Cited1creERT2-EGFP×ICR (Institute for Cancer Research mice) heterozygous mice. Cited1creERT2-EGFP and Six2cre-EGFP mouse strains are maintained on an FVB/NJ background (Boyle et al., 2008a; Kobayashi et al., 2008).
(§3) LDN was selected over other similar analogs because it is highly specific for SMAD1/5 and has been successfully used in vivo (Yu et al., 2008). […] To measure the differentiation status of nephron progenitor cells, Cited1creERT2-EGFP and Six2cre-EGFP mouse strains were used, which dynamically expressed fluorescent protein under the control of Cited1 and Six2 (Boyle et al., 2008a; Kobayashi et al., 2008). […]
In general terms: A western blot detects proteins with antibodies after separation by electrophoresis.

Experiment [6] addresses T1, ALK7 (Homo sapiens, UniProt Q8NER5).
T1 sequence (Q8NER5 21-493): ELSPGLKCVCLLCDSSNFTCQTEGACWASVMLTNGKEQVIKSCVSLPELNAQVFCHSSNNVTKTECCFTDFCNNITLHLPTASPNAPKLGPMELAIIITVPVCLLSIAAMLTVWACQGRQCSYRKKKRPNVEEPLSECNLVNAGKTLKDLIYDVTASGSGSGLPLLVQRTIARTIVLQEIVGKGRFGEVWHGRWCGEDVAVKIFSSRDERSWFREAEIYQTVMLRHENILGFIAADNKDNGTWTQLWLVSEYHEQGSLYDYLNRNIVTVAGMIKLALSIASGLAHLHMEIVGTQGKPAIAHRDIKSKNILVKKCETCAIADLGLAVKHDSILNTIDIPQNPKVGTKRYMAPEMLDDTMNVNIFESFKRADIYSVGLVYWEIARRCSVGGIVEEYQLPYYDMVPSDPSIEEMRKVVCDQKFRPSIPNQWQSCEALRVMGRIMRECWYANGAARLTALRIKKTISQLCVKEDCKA
The conditions noted are these: ALK7, not inhibited; cited from earlier work.

Experiment [7] relates to cap mesenchyme. As to the kind of experiment: Cited1/Six2 EGFP reporter expression in cap mesenchyme of treated pups. Format: in vivo, mouse. The conditions noted are these: EGFP reporter mice, P2 and P3; untreated animals lost expression.
Description: as §1, §2, §3

On to `Cc1c[nH]c(-c2cnc(NCCNc3ccc(C#N)cn3)nc2-c2ccc(Cl)cc2Cl)n1` [CHIR99021], for which, in experiment [1], the “expression of CITED1, PAX2, SIX2 and WT1 after subtraction of the component” value (“expression of CITED1, PAX2, SIX2 and WT1” below) is “critical dependence”. In experiment [2], the “competence for tubulogenesis after subtraction of the factor” value (from here on “competence for tubulogenesis”) is recorded as “still competent to undergo tubulogenesis”; the “progenitor growth and state in the absence of the factor” value (“progenitor growth and state” for short) is recorded as “failed to expand but remained CITED1+”. For the same compound, the “tubulogenesis of P0 Cited1creERT2-EGFP progenitors” value in experiment [3] (CHIR 3 μM, by day 4, GFP expression lost) was “underwent tubulogenesis”. In addition, in experiment [4], the “tubulogenesis in aggregate culture with WNT/β-catenin agonist” value was “robust tubulogenesis”.

On to `c1ccc2c(-c3cnn4cc(-c5ccc(N6CCNCC6)cc5)cnc34)ccnc2c1` [LDN-193189], for which, in experiment [5], the “reduction in SMAD1/5 phosphorylation compared to vehicle-treated controls” value was “greater than 95%”. Moreover, the “expression of CITED1, PAX2, SIX2 and WT1” value in experiment [1] is recorded as “critical dependence”. In experiment [2], the “competence for tubulogenesis” value is listed as “unable to undergo differentiation”; the “progenitor growth and state” value was “expanded but were largely CITED1 negative”. Further, in experiment [6], the concentration for half-maximal inhibition (IC50) was more than 500 nM. Besides, in experiment [3] (LDN 75 nM added to CHIR 3 μM), the “Cited1-driven GFP expression” value was “maintained GFP expression” and the “effect on CHIR-induced tubulogenesis” value is listed as “blocked tubulogenesis”. For the same compound, the “expression of Cited1 and Six2 in cap mesenchyme” value in experiment [7] is “expression was maintained”.

`O=C1Nc2cc(Br)ccc2/C1=C1/Nc2ccccc2/C1=N\O` [BIO]: in experiment [4], the “tubulogenesis in aggregate culture with WNT/β-catenin agonist” value was “robust tubulogenesis”.

In the case of `C[C@@H](N)[C@H]1CC[C@H](C(=O)Nc2ccncc2)CC1` [Y-27632], in experiment [1], the “expression of CITED1, PAX2, SIX2 and WT1” value is reported as “critical dependence”. For the same compound, in experiment [2], the “competence for tubulogenesis” value is on record as “still competent to undergo tubulogenesis”; the “progenitor growth and state” value is “significant decrease in cell attachment”.

The term IC50 denotes the concentration needed to halve the response being measured.
